From PubChem BioAssay AID220 (DTP/NCI, 2004)
Where “and” joins values, the source holds several entries; their conditions need not be identical. Identical values can stand only once. Records with an inconclusive call do not appear.

System: CD8F1 mice, subcutaneous mammary adenocarcinoma, T/C%
Experiment: NCI In Vivo Anticancer Drug Screen. Data for tumor model Mammary Adenocarcinoma CD8F1 (subcutaneous) in CD8F1
Conditions: higher = larger tumour
How it was run: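 Compound-treated versus vehicle-treated mice with transplantable tumors; survival or tumor size compared as T/C.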

[1] = endpoint: median tumor weight (est.), dose: 4.0 mg/kg/injection, schedule: Q07DX005 (ip), vehicle: saline
[2] = endpoint: median tumor weight (est.), dose: 16.0 mg/kg/injection, schedule: Q07DX005 (ip), vehicle: saline
[3] = endpoint: median tumor weight (est.), dose: 100.0 mg/kg/injection, schedule: Q07DX005 (ip), vehicle: saline with Tween-80
[4] = endpoint: median tumor weight (est.), dose: 12.5 mg/kg/injection, schedule: Q07DX005 (ip), vehicle: saline
[5] = endpoint: median tumor weight (est.), dose: 25.0 mg/kg/injection, schedule: Q07DX005 (ip), vehicle: saline
[6] = endpoint: median tumor weight (est.), dose: 50.0 mg/kg/injection, schedule: Q07DX005 (ip), vehicle: saline
[7] = endpoint: median tumor weight change, dose: 125.0 mg/kg/injection, schedule: Q01DX001 (ip), vehicle: saline
[8] = endpoint: median tumor weight change, dose: 250.0 mg/kg/injection, schedule: Q01DX001 (ip), vehicle: saline
[9] = endpoint: median tumor weight change, dose: 500.0 mg/kg/injection, schedule: Q01DX001 (ip), vehicle: saline
[10] = endpoint: median tumor weight change, dose: 1000.0 mg/kg/injection, schedule: Q01DX001 (ip), vehicle: saline
[11] = endpoint: median tumor weight change, dose: 2000.0 mg/kg/injection, schedule: Q01DX001 (ip), vehicle: saline

Cc1ccc(C2NC(=O)c3ccccc3N2)s1 (centres undefined)
T/C (endpoint: mean tumor weight, dose: 25.0 mg/kg/injection, schedule: Q07DX005 (ip), vehicle: Klucel (hydroxypropylcellulose) (HPC)): 82 % of control
T/C (endpoint: mean tumor weight, dose: 50.0 mg/kg/injection, schedule: Q07DX005 (ip), vehicle: Klucel (hydroxypropylcellulose) (HPC)): 88 % of control
T/C (endpoint: mean tumor weight, dose: 100.0 mg/kg/injection, schedule: Q07DX005 (ip), vehicle: Klucel (hydroxypropylcellulose) (HPC)): 106 % of control
T/C (endpoint: mean tumor weight, dose: 200.0 mg/kg/injection, schedule: Q07DX005 (ip), vehicle: Klucel (hydroxypropylcellulose) (HPC)): 105 % of control
T/C (endpoint: mean tumor weight, dose: 400.0 mg/kg/injection, schedule: Q07DX005 (ip), vehicle: Klucel (hydroxypropylcellulose) (HPC)): 123 % of control
T/C (endpoint: median tumor weight (est.), dose: 12.5 mg/kg/injection, schedule: Q07DX005 (ip), vehicle: Klucel (hydroxypropylcellulose) (HPC)): 78 % of control
T/C (endpoint: median tumor weight (est.), dose: 25.0 mg/kg/injection, schedule: Q07DX005 (ip), vehicle: Klucel (hydroxypropylcellulose) (HPC)): 14 % of control
T/C (endpoint: median tumor weight (est.), dose: 50.0 mg/kg/injection, schedule: Q07DX005 (ip), vehicle: Klucel (hydroxypropylcellulose) (HPC)): 110 % of control

O=C(Nc1cccc(Cl)c1)ON1C(=O)C2C(C1=O)C1(Cl)C(Cl)C(Cl)C2(Cl)C1(Cl)Cl (centres undefined)
T/C (endpoint: median tumor weight change, dose: 62.5 mg/kg/injection, schedule: Q01DX001 (ip), vehicle: saline with Tween-80): 112 % of control
T/C (endpoint: median tumor weight change, dose: 125.0 mg/kg/injection, schedule: Q01DX001 (ip), vehicle: saline with Tween-80): 112 % of control
T/C (endpoint: median tumor weight change, dose: 250.0 mg/kg/injection, schedule: Q01DX001 (ip), vehicle: saline with Tween-80): 95 % of control

COc1cc([C@@H]2c3cc4c(cc3[C@@H](OC3OC5CO[C@@H](c6cccs6)OC5C(O)C3O)[C@H]3COC(=O)[C@H]23)OCO4)cc(OC)c1O (some centres undefined)
T/C (endpoint: median tumor weight (est.), dose: 2.0 mg/kg/injection, schedule: Q07DX005 (ip), vehicle: suspension in saline): 90 % of control and 103 % of control
T/C [1]: 23 % of control
T/C (endpoint: median tumor weight (est.), dose: 4.0 mg/kg/injection, schedule: Q07DX005 (ip), vehicle: suspension in saline): 87 % of control and 100 % of control
T/C (endpoint: median tumor weight (est.), dose: 8.0 mg/kg/injection, schedule: Q07DX005 (ip), vehicle: suspension in saline): 81 % of control and 92 % of control
T/C [2]: 47 % of control
T/C (endpoint: median tumor weight (est.), dose: 32.0 mg/kg/injection, schedule: Q07DX005 (ip), vehicle: saline): 25 % of control
T/C (endpoint: median tumor weight (est.), dose: 32.0 mg/kg/injection, schedule: Q07DX005 (ip), vehicle: suspension in saline): 51 % of control and 57 % of control
T/C (endpoint: median tumor weight change, dose: 20.0 mg/kg/injection, schedule: Q01DX001 (ip), vehicle: suspension in saline): 96 % of control
T/C (endpoint: median tumor weight change, dose: 40.0 mg/kg/injection, schedule: Q01DX001 (ip), vehicle: suspension in saline): 74 % of control
T/C (endpoint: median tumor weight change, dose: 80.0 mg/kg/injection, schedule: Q01DX001 (ip), vehicle: suspension in saline): 91 % of control
T/C (endpoint: median tumor weight change, dose: 160.0 mg/kg/injection, schedule: Q01DX001 (ip), vehicle: suspension in saline): 117 % of control
T/C (endpoint: median tumor weight change, dose: 320.0 mg/kg/injection, schedule: Q01DX001 (ip), vehicle: suspension in saline): 80 % of control

COC(=Nc1ccccc1)SSC(C)C
T/C [3]: 43 % of control and 46 % of control

C=CC(C)NC(=S)NNC(=S)NC (centres undefined)
T/C (endpoint: median tumor weight change, dose: 62.5 mg/kg/injection, schedule: Q01DX001 (ip), vehicle: saline + alcohol): 155 % of control
T/C (endpoint: median tumor weight change, dose: 125.0 mg/kg/injection, schedule: Q01DX001 (ip), vehicle: saline + alcohol): 164 % of control
T/C (endpoint: median tumor weight change, dose: 250.0 mg/kg/injection, schedule: Q01DX001 (ip), vehicle: saline + alcohol): 119 % of control
T/C (endpoint: median tumor weight change, dose: 500.0 mg/kg/injection, schedule: Q01DX001 (ip), vehicle: saline + alcohol): 82 % of control

COc1ccc(/C=C/C(=O)c2cc(C(=O)O)c(OC)cc2OC)cc1OC
T/C [4]: 326 % of control
T/C [5]: 117 % of control
T/C [6]: 192 % of control
T/C (endpoint: median tumor weight (est.), dose: 50.0 mg/kg/injection, schedule: Q07DX005 (ip), vehicle: suspension in saline): 85 % of control
T/C (endpoint: median tumor weight (est.), dose: 100.0 mg/kg/injection, schedule: Q07DX005 (ip), vehicle: saline): 84 % of control
T/C (endpoint: median tumor weight (est.), dose: 100.0 mg/kg/injection, schedule: Q07DX005 (ip), vehicle: suspension in saline): 107 % of control
T/C (endpoint: median tumor weight (est.), dose: 200.0 mg/kg/injection, schedule: Q07DX005 (ip), vehicle: saline): 42 % of control
T/C (endpoint: median tumor weight (est.), dose: 200.0 mg/kg/injection, schedule: Q07DX005 (ip), vehicle: suspension in saline): 53 % of control

O=C(O)C1CC(O)CN1 (centres undefined)
T/C [7]: 71 % of control
T/C [8]: 64 % of control and 78 % of control
T/C [9]: 59 % of control and 69 % of control
T/C [10]: 66 % of control and 70 % of control
T/C [11]: 13 % of control and 15 % of control

CN(CO)c1nc(N(C)CO)nc(N(C)CO)n1
T/C (endpoint: median tumor weight (est.), dose: 0.5 mg/kg/injection, schedule: Q07DX005 (ip), vehicle: saline): 56 % of control
T/C (endpoint: median tumor weight (est.), dose: 1.0 mg/kg/injection, schedule: Q07DX005 (ip), vehicle: saline): 78 % of control
T/C (endpoint: median tumor weight (est.), dose: 2.0 mg/kg/injection, schedule: Q07DX005 (ip), vehicle: saline): 110 % of control
T/C [1]: 48 % of control
T/C (endpoint: median tumor weight (est.), dose: 6.25 mg/kg/injection, schedule: Q07DX005 (ip), vehicle: saline with Tween-80): 92 % of control
T/C (endpoint: median tumor weight (est.), dose: 8.0 mg/kg/injection, schedule: Q07DX005 (ip), vehicle: saline): 46 % of control
T/C (endpoint: median tumor weight (est.), dose: 12.5 mg/kg/injection, schedule: Q07DX005 (ip), vehicle: saline with Tween-80): 116 % of control
T/C (endpoint: median tumor weight (est.), dose: 12.5 mg/kg/injection, schedule: Q07DX006 (ip), vehicle: saline): 288 % of control
T/C [2]: 14 % of control
T/C (endpoint: median tumor weight (est.), dose: 25.0 mg/kg/injection, schedule: Q07DX006 (ip), vehicle: saline): 42 % of control
T/C (endpoint: median tumor weight (est.), dose: 50.0 mg/kg/injection, schedule: Q07DX005 (ip), vehicle: saline with Tween-80): 94 % of control
T/C (endpoint: median tumor weight (est.), dose: 50.0 mg/kg/injection, schedule: Q07DX006 (ip), vehicle: saline): 40 % of control
T/C [3]: 25 % of control
T/C (endpoint: median tumor weight (est.), dose: 100.0 mg/kg/injection, schedule: Q07DX006 (ip), vehicle: saline): 35 % of control
T/C (endpoint: median tumor weight (est.), dose: 200.0 mg/kg/injection, schedule: Q07DX005 (ip), vehicle: saline with Tween-80): 31 % of control
T/C (endpoint: median tumor weight (est.), dose: 200.0 mg/kg/injection, schedule: Q07DX006 (ip), vehicle: saline): 5 % of control

COc1cc(C(=O)c2cc3c(cc2C)OCO3)cc(OC)c1OC
T/C (endpoint: median tumor weight change, dose: 125.0 mg/kg/injection, schedule: Q01DX001 (ip), vehicle: Klucel (hydroxypropylcellulose) (HPC)): 59 % of control and 75 % of control
T/C (endpoint: median tumor weight change, dose: 250.0 mg/kg/injection, schedule: Q01DX001 (ip), vehicle: Klucel (hydroxypropylcellulose) (HPC)): 47 % of control and 54 % of control
T/C (endpoint: median tumor weight change, dose: 500.0 mg/kg/injection, schedule: Q01DX001 (ip), vehicle: Klucel (hydroxypropylcellulose) (HPC)): 70 % of control

COc1ccc(C(=O)c2no[n+]([O-])c2C(=O)c2ccc(OC)cc2)cc1
T/C (endpoint: median tumor weight change, dose: 500.0 mg/kg/injection, schedule: Q01DX001 (ip), vehicle: saline with Tween-80): 84 % of control

C#CCNC1=C(C)C(=O)C2=C(C1=O)[C@H](COC(N)=O)[C@]1(OC)[C@@H]3N[C@@H]3CN21
T/C (endpoint: median tumor weight change, dose: 16.0 mg/kg/injection, schedule: Q01DX001 (ip), vehicle: distilled water + Tween-80): 75 % of control
T/C (endpoint: median tumor weight change, dose: 31.0 mg/kg/injection, schedule: Q01DX001 (ip), vehicle: distilled water + Tween-80): 27 % of control

CCCCCC[C@@H](O)C/C=C\CCCCCCCC(=O)OCCO
T/C [7]: 96 % of control
T/C [8]: 91 % of control
T/C [9]: 98 % of control
T/C [10]: 103 % of control
T/C [11]: 95 % of control

O=C1C(NCCO)=C(N2CC2)C(=O)C(NCCO)=C1N1CC1
T/C (endpoint: median tumor weight change, dose: 0.62 mg/kg/injection, schedule: Q01DX001 (ip), vehicle: saline): 73 % of control
T/C (endpoint: median tumor weight change, dose: 0.63 mg/kg/injection, schedule: Q01DX001 (ip), vehicle: saline): 36 % of control
T/C (endpoint: median tumor weight change, dose: 5.0 mg/kg/injection, schedule: Q01DX001 (ip), vehicle: saline): 25 % of control

CC[C@@]1(O)C(=O)OCc2c1cc1n(c2=O)Cc2cc3cc(O)ccc3nc2-1
T/C (endpoint: median tumor weight change, dose: 1.85 mg/kg/injection, schedule: Q01DX001 (ip), vehicle: saline): 97 % of control
T/C (endpoint: median tumor weight change, dose: 7.5 mg/kg/injection, schedule: Q01DX001 (ip), vehicle: saline): 107 % of control
T/C (endpoint: median tumor weight change, dose: 15.0 mg/kg/injection, schedule: Q01DX001 (ip), vehicle: saline): 80 % of control
T/C (endpoint: median tumor weight change, dose: 30.0 mg/kg/injection, schedule: Q01DX001 (ip), vehicle: saline): 28 % of control

C1OC1CN1CCN(CC2CO2)CC1 (centres undefined)
T/C (endpoint: median tumor weight (est.), dose: 3.12 mg/kg/injection, schedule: Q07DX005 (ip), vehicle: saline): 72 % of control and 80 % of control
T/C [4]: 24 % of control and 38 % of control
T/C [5]: 24 % of control and 28 % of control
T/C [6]: 1 % of control and 4 % of control
